Assay [1] addresses T1, pseudo-kinase domain (JH2) of human V617F mutant JAK2 (Homo sapiens, UniProt O60674, F794H/V617F/W659A/W777A).
T1 construct: pseudo-kinase domain (JH2, amino-acids 536-812 with 3 surface mutations W659A, W777A, F794H); His (C); purchased BPS Bioscience 79498; host or cells: baculovirus expression system
The assay can be described thus: JAK2 LanthaScreen JH2-V617F binding assay. The following applies: read-out: JH2 V617F Bind IC50. On the procedure: Example B. JAK2 LanthaScreen JH2-V617F Binding Assay
JAK2 JH2-V617F binding assay utilizes pseudo-kinase domain (JH2, amino-acids 536-812 with 3 surface mutations W659A, W777A, F794H) of human V617F mutant JAK2 expressed as C-terminal His-Avi-tagged, biotinylated protein in a baculovirus expression system (BPS Bioscience, Catalog #79498). The assay was conducted in black 384-well polystyrene plates in a final reaction volume of 20 μL. JAK2 JH2-V617F (0.26 nM) was incubated with compounds (100 nL serially diluted in DMSO) in the presence of 50 nM Fluorescent JAK2-JH2 Tracer (MedChem Express Catalog #HY-102055) and 0.25 nM Streptavidin-Tb cryptate (Cisbio Part #610SATLB) in assay buffer (50 mM Tris, pH=7.5, 10 mM MgCl2, 0.01% Brij-35, 0.1% BSA, 1 mM EGTA, 5% Glycerol and 5 mM DTT). Non-specific binding was accessed in the presence of 2 mM ATP. After incubation for 1 hour at 25° C., LanthaScreen signals were read on a PHERAstar FS plate reader (BMG LABTECH). Data was analyzed with IDBS XLfit and GraphPad Prism 5.0 software using a four parameter dose response curve to determine IC50 for each compound.
On the technique in general: Time-resolved FRET reads energy transfer from a long-lived donor to a nearby acceptor.

Assay [2] addresses T2, catalytic domain (JH1, amino acids 826-1132) of human JAK2 (Homo sapiens, UniProt O60674).
T2 construct: catalytic domain (JH1, amino acids 826-1132) of human JAK2; FLAG (N); biotin (biotinylated); purchased Carna Biosciences 08-445-20N; host or cells: baculovirus expression system
The assay can be described thus: JAK2 LanthaScreen JH1 binding assay. The following applies: read-out: JH1 Bind IC50. On the procedure: Example A. JAK2 LanthaScreen […] Binding Assay
JAK2 JH1 binding assay utilizes catalytic domain (JH1, amino acids 826-1132) of human JAK2 expressed as N-terminal FLAG-tagged, biotinylated protein in a baculovirus expression system (Carna Biosciences, Product #08-445-20N). The assay was conducted in black 384-well polystyrene plates in a final reaction volume of 20 μL. JAK2 JH1 (1.5 nM) was incubated with compounds (100 nL serially diluted in DMSO) in the presence of 50 nM fluorescent JAK2-JH1 tracer and 0.5 nM Streptavidin-Tb cryptate (Cisbio Part #610SATLB) in assay buffer (50 mM Tris, pH=7.5, 10 mM MgCl2, 0.01% Brij-35, 0.1% BSA, 1 mM EGTA, 5% Glycerol and 5 mM DTT). Non-specific binding was accessed in the presence of 2 mM ATP. After incubation for 2 hours at 25° C., LanthaScreen signals were read on a PHERAstar FS plate reader (BMG LABTECH). Data was analyzed with IDBS XLfit and GraphPad Prism 5.0 software using a four parameter dose response curve to determine IC50 for each compound.

Assay [3] concerns the target T3, FLT3 (Homo sapiens, UniProt P36888).
T3 sequence (P36888 27-993): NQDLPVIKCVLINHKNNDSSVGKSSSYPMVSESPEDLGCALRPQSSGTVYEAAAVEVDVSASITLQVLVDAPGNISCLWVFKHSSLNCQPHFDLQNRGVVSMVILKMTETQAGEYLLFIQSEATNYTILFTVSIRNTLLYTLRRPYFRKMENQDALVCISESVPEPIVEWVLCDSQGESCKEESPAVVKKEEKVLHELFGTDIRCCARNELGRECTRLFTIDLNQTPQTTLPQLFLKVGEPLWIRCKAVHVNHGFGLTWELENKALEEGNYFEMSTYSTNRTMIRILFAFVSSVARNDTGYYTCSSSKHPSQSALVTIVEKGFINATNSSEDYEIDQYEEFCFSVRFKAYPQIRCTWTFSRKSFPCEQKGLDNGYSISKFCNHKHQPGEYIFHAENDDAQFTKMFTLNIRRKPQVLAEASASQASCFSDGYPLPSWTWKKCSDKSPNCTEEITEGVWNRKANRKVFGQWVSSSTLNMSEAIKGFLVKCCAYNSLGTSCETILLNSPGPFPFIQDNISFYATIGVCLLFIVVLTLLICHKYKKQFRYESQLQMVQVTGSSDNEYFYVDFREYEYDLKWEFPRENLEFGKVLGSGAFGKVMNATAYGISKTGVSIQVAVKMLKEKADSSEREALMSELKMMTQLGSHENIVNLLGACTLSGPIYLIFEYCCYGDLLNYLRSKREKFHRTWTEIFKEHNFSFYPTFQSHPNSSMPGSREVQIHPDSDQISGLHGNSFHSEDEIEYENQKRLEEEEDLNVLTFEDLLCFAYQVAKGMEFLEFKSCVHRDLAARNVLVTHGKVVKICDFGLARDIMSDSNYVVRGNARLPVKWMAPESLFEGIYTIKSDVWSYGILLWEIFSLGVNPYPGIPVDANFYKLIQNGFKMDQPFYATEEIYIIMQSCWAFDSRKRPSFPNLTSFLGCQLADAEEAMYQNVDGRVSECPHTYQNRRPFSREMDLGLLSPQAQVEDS
Nature of the assay: FLT3 enzymatic assay. In kind it is biochemical. The note with it: 1 mM ATP. The method in brief:
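Kinase reaction at room temperature in HEPES 50 mM pH 7.0 with 10 mM MgCl2, 1 mM DTT: 0.011 nM FLT3, 1 mM ATP, 500 nM biotinylated TK substrate, 0.5% DMSO. After 60 min, HTRF read as 665/620 nm ratio; IC50 from fit of percent control activity versus log concentration.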

The structures appear in SMILES notation. pIC50: −log10 of the molar value. Read-outs that look alike come from different tables or passages of the source.

T2 sequence (O60674 826-1132): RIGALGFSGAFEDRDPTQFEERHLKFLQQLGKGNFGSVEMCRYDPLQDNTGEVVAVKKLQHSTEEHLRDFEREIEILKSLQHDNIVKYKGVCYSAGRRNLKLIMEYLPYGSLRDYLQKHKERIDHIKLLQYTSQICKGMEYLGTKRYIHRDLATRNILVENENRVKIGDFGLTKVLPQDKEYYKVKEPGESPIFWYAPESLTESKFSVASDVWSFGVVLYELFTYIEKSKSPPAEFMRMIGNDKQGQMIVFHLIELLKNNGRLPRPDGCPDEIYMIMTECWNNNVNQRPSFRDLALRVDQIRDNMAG
T1 sequence (O60674 536-812 V617F/W659A/W777A/F794H): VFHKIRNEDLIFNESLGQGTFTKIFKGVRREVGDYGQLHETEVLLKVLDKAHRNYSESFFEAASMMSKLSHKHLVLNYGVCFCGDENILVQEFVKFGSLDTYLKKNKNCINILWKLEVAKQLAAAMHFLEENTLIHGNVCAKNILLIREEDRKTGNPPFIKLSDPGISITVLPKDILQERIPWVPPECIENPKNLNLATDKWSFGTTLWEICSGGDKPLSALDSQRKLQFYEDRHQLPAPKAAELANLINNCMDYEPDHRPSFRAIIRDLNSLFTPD

The pIC50 is the negative decadic logarithm of the IC50, by convention in mol/L. As to `[2H]C([2H])([2H])n1cc(-c2[nH]c3ncc4c(c3c2-c2ccc3c(cnn3C([2H])([2H])[2H])c2)n([C@@H]2CC[C@@H](NC(=O)OC)C2)c(=O)n4C([2H])([2H])[2H])c(F)n1` [Example 6, Methyl ((1R,3R)-3-(7-(3-fluoro-1-(methyl-d3)-1H-pyrazol-4-yl)-3-(methyl-d3)-8-(1-(methyl-d3)-1H-indazol-5-yl)-2-oxo-3,6-dihydroimidazo[4,5-d]pyrrolo[2,3-b]pyridin-1(2H)-yl)cyclopentyl)carbamate], the pIC50 in assay [1] (Table A) is at least 8.00; in assay [1] (Table C) it was at least 8.00; in assay [2] (Table A) it was below 6.00; in assay [2] (Table C) it was below 6.00; in assay [3], 5.60 to 5.90.

For `[2H]C([2H])([2H])n1ncc2cc(-c3c(-c4cn(C([2H])(C([2H])([2H])[2H])C([2H])([2H])[2H])nc4F)[nH]c4ncc5c(c34)n([C@@H]3CC[C@@H](NC(=O)OC)C3)c(=O)n5C([2H])([2H])[2H])ccc21` [Example 21, Methyl ((1R,3R)-3-(7-(3-fluoro-1-(propan-2-yl-d7)-1H-pyrazol-4-yl)-3-(methyl-d3)-8-(1-(methyl-d3)-1H-indazol-5-yl)-2-oxo-3,6-dihydroimidazo[4,5-d]pyrrolo[2,3-b]pyridin-1(2H)-yl)cyclopentyl)carbamate], the pIC50 is at least 8.00 in assay [1] (Table A); at least 8.00 in assay [1] (Table C); below 6.00 in assay [2] (Table A); below 6.00 in assay [2] (Table C); 5.60 to 5.90 in assay [3].

On to `[2H]C([2H])([2H])n1cc(-c2[nH]c3ncc4c(c3c2-c2ccc(C(C)(C)O)cc2)n([C@@H]2CC[C@@H](NC(=O)OC)C2)c(=O)n4C([2H])([2H])[2H])c(F)n1` [Example 10, Methyl ((1R,3R)-3-(7-(3-fluoro-1-(methyl-d3)-1H-pyrazol-4-yl)-8-(4-(2-hydroxypropan-2-yl)phenyl)-3-(methyl-d3)-2-oxo-3,6-dihydroimidazo[4,5-d]pyrrolo[2,3-b]pyridin-1(2H)-yl)cyclopentyl)carbamate], for which the pIC50 in assay [1] (Table A) was at least 8.00; in assay [1] (Table C), at least 8.00; in assay [2] (Table A), below 6.00; in assay [2] (Table C) it was below 6.00; in assay [3] it was 5.90 to 6.60.

Regarding `[2H]C([2H])([2H])n1ncc2cc(-c3c(-c4cn(C)nc4OC)[nH]c4ncc5c(c34)n([C@@H]3CC[C@@H](NC(=O)OC)C3)c(=O)n5C)ccc21` [Example 5, Methyl ((1R,3R)-3-(7-(3-methoxy-1-methyl-1H-pyrazol-4-yl)-3-methyl-8-(1-(methyl-d3)-1H-indazol-5-yl)-2-oxo-3,6-dihydroimidazo[4,5-d]pyrrolo[2,3-b]pyridin-1(2H)-yl)cyclopentyl)carbamate], the negative-log IC50 (pIC50) is at least 8.00 in assay [1] (Table A); at least 8.00 in assay [1] (Table C); below 6.00 in assay [2] (Table A); below 6.00 in assay [2] (Table C); 5.60 to 5.90 in assay [3].

Take `[2H]C([2H])([2H])n1cc(-c2[nH]c3ncc4c(c3c2-c2cc(F)c3c(cnn3C([2H])([2H])[2H])c2)n([C@@H]2CC[C@@H](NC(=O)OC)C2)c(=O)n4C([2H])([2H])[2H])c(F)n1` [Example 17, Methyl ((1R,3R)-3-(8-(7-fluoro-1-(methyl-d3)-1H-indazol-5-yl)-7-(3-fluoro-1-(methyl-d3)-1H-pyrazol-4-yl)-3-(methyl-d3)-2-oxo-3,6-dihydroimidazo[4,5-d]pyrrolo[2,3-b]pyridin-1(2H)-yl)cyclopentyl)carbamate]: the pIC50 is at least 8.00 in assay [1] (Table A); at least 8.00 in assay [1] (Table C); below 6.00 in assay [2] (Table A); below 6.00 in assay [2] (Table C); 5.60 to 5.90 in assay [3].

On to `[2H]C([2H])([2H])n1c(=O)n([C@@H]2CC[C@@H](NC(=O)OC)C2)c2c3c(-c4ccc5c(c4)COC5(C)C)c(-c4cn(CC)nc4F)[nH]c3ncc21` [Example 20, Methyl ((1R,3R)-3-(8-(1,1-dimethyl-1,3-dihydroisobenzofuran-5-yl)-7-(1-ethyl-3-fluoro-1H-pyrazol-4-yl)-3-(methyl-d3)-2-oxo-3,6-dihydroimidazo[4,5-d]pyrrolo[2,3-b]pyridin-1(2H)-yl)cyclopentyl)carbamate], for which the pIC50 was at least 8.00 in assay [1] (Table A); at least 8.00 in assay [1] (Table C); below 6.00 in assay [2] (Table A); below 6.00 in assay [2] (Table C); below 5.60 in assay [3].

For the compound `[2H]C([2H])([2H])n1cc(-c2[nH]c3ncc4c(c3c2-c2ccc(F)cc2)n([C@@H]2CC[C@@H](NC(=O)OC)C2)c(=O)n4C([2H])([2H])[2H])c(F)n1` [Example 7, Methyl ((1R,3R)-3-(7-(3-fluoro-1-(methyl-d3)-1H-pyrazol-4-yl)-8-(4-fluorophenyl)-3-(methyl-d3)-2-oxo-3,6-dihydroimidazo[4,5-d]pyrrolo[2,3-b]pyridin-1(2H)-yl)cyclopentyl)carbamate], the negative logarithm of the IC50 (pIC50) is at least 8.00 in assay [1] (Table A); at least 8.00 in assay [1] (Table C); below 6.00 in assay [2] (Table A); below 6.00 in assay [2] (Table C); below 5.60 in assay [3].

In the case of `COC(=O)N[C@@H]1CC[C@@H](n2c(=O)n(C)c3cnc4[nH]c(-c5cn(C)nc5OC)c(-c5ccc(OC)c(F)c5)c4c32)C1` [Example 4, Methyl ((1R,3R)-3-(8-(3-fluoro-4-methoxyphenyl)-7-(3-methoxy-1-methyl-1H-pyrazol-4-yl)-3-methyl-2-oxo-3,6-dihydroimidazo[4,5-d]pyrrolo[2,3-b]pyridin-1(2H)-yl)cyclopentyl)carbamate], the pIC50 in assay [1] (Table A) is at least 8.00; in assay [1] (Table C) it was at least 8.00; in assay [2] (Table A), below 6.00; in assay [2] (Table C), below 6.00; in assay [3], below 5.60.

`COc1nn(C)cc1-c1[nH]c2ncc3c(c2c1-c1ccc2c(cnn2C)c1)n([C@H]1CC[C@@H](CC#N)CC1)c(=O)n3C` [E, reference compound]: the pIC50 in assay [3] was 5.90 to 6.60.

Values taken from patent US12084430B2, “Tricyclic urea compounds as JAK2 V617F inhibitors” (Incyte Corporation, priority 2022, dated 2024).
